Publication PMC8875392, “Design and Characterization of Myristoylated and Non-Myristoylated Peptides Effective against Candida spp. Clinical Isolates” (International Journal of Molecular Sciences, 2022)
In brackets after ≈: the same amount, converted by molar mass. Like-named read-outs stand apart in the source and are kept apart here. Where a SMILES comes first, the peptide text is derived from it. The star is where a group is joined. Myristoyl = CCCCCCCCCCCCCC(=O)*

Columns and labels:
[1] = Critical micellar concentration (CMC) determination with ANS fluorescent probe; format: physicochemical; settings: ANS fluorescence (70 μM ANS, λex 356 nm, emission 465 nm) in water, peptide 0.8–10.0 μM, 298 K, intersection of the two lines
Method: Lipopeptides usually self-assemble in organized structures that have attracted interest because of their enhanced bactericidal and fungicidal effects. The self-assembly of myristoylated peptides was evaluated by determining the critical micellar concentration (CMC) that represents the concentration of spontaneous associations of monomers by a spectrofluorometric method. 8-anilinonaphtalene-1-sulfonate (ANS) was used as a fluorescent probe since its fluorescence is very sensitive to the microenvironment, showing a blue shift and intensity increase upon changing from a polar to non-polar medium. Therefore, the fluorescence of ANS was monitored as a function of the lipopeptide concentration. […] Fluorescence intensity slowly increases up to a certain lipopeptide concentration and then breaks abruptly, indicating a sudden change in the aggregation state of lipopeptides. For each peptide, the critical micellar concentration (CMC) was evaluated by the intersection of the two lines. […] All the steady-state fluorescence measurements were carried out using a Perkin Elmer LS55 fluorescence spectrophotometer. All the experiments were conducted at 298 K in a thermostatic cell holder and in 20 mM phosphate buffer at pH 7.4 containing 0.8 mM EDTA and 150 mM NaCl unless otherwise specified. The CMC of the N-terminal myristoylated peptides was determined in water by fluorescence spectroscopy using 8-anilinonaphtalene-1-sulfonate (ANS) as the fluorescent probe. […] The ANS was excited at λex = 356 nm, and the fluorescence spectrum was measured for λem = 400–670 nm with excitation and emission bandwidths of 5 nm.

[2] = tested on: C. glabrata clinical isolates; format: cell-based, Candida glabrata; settings: 16 h
Method: (§1) The antifungal activity of AMPs was determined against 50 clinical isolates, 10 for each of the following Candida species: C. albicans, C. tropicalis, C. glabrata, C. parapsilosis, and C. auris. The latter were derived from patients with positive blood cultures in four hospitals in India, with known resistance profiles to fluconazole, voriconazole, and echinocandins. Yeast cells were grown in Brain Heart Infusion (BHI) medium (Sigma-Aldrich, Gillingham, UK) for 16 h at 37 °C in a 150-rpm orbital shaker. Cells were then sub-inoculated in a fresh BHI medium and grown to an optical density (OD) of 0.3. The turbidity of the inoculum was adjusted to 0.5 McFarland and diluted 1:500 in RPMI 1640 broth, corresponding to around […].
(§2) Minimal inhibitory concentrations (MICs) were determined by Broth microdilution susceptibility tests, according to The Clinical and Laboratory Standards Institute (CLSI) international guidelines. A fungal suspension of 0.5 MacFarland was diluted 1:500 in RPMI 1640 broth and incubated in 96 multi-well plates containing AMPs at different concentrations ranging from 0.125 to 256 μg/mL. In this range of concentration, lipopeptides were completely soluble. […] The MIC90 represents the value at which ≥90% of the strains within a test population were inhibited.

[3] = tested on: C. parapsilosis clinical isolates; format: cell-based, Candida parapsilosis
Method: as §1, §2

[4] = tested on: C. tropicalis clinical isolates; format: cell-based, Candida tropicalis; settings: for MIC90: clinical isolates, 16 h; for MIC: CLSI broth microdilution, RPMI 1640
Method: as §1, §2

[5] = tested on: C. auris clinical isolates; format: cell-based, Candida auris; settings: for MIC: CLSI broth microdilution, RPMI 1640
Method: as §1, §2

[6] = isolate Candida parapsilosis 8, CLSI broth microdilution, RPMI 1640
[7] = isolate Candida parapsilosis 9, CLSI broth microdilution, RPMI 1640
[8] = isolate Candida parapsilosis 10, CLSI broth microdilution, RPMI 1640

| SMILES | critical micellar concentration (CMC) [1] [µM] | MIC90 [2] [µg/mL] | MIC ([3]; clinical isolates, 16 h) [µg/mL] | MIC90 ([3]; clinical isolates, 16 h) [µg/mL] | MIC [3, 6] [µg/mL] | MIC [3, 7] [µg/mL] | MIC [3, 8] [µg/mL] | MIC90 [4] [µg/mL] | MIC ([4]; isolate Candida tropicalis 1) [µg/mL] | MIC ([4]; isolate Candida tropicalis 2) [µg/mL] | MIC ([4]; isolate Candida tropicalis 3) [µg/mL] | MIC ([4]; isolate Candida tropicalis 4) [µg/mL] | MIC ([4]; isolate Candida tropicalis 5) [µg/mL] | MIC ([4]; isolate Candida tropicalis 6) [µg/mL] | MIC ([4]; isolate Candida tropicalis 7) [µg/mL] | MIC ([4]; isolate Candida tropicalis 8) [µg/mL] | MIC ([4]; isolate Candida tropicalis 9) [µg/mL] | MIC ([4]; isolate Candida tropicalis 10) [µg/mL] | MIC ([5]; isolate Candida Auris 1) [µg/mL] | MIC ([5]; isolate Candida Auris 2) [µg/mL] | further results |
| --- | --- | --- | --- | --- | --- | --- | --- | --- | --- | --- | --- | --- | --- | --- | --- | --- | --- | --- | --- | --- | --- |
| CCCCCCCCCCCCCC(=O)N[C@@H](Cc1c[nH]c2ccccc12)C(=O)N[C@@H](CCCNC(=N)N)C(=O)NCC(=O)N[C@H](C(=O)N[C@H](C(=O)N[C@@H](CCCCN)C(=O)N[C@H](C(=O)N[C@H](C(=O)N[C@@H](CCCCN)C(=O)N[C@@H](CCCCN)C(=O)N[C@H](C(=O)O)C(C)C)C(C)C)C(C)C)[C@@H](C)O)[C@@H](C)CC [Myr-B] (Myristoyl-WRGITKVVKKV-OH; C-terminus assumed) | 5.1 ± 0.8 | 32 (≈ 21 µM) | 32 (≈ 21 µM) | 32 (≈ 21 µM) | 32 (≈ 21 µM) | 32 (≈ 21 µM) | 32 (≈ 21 µM) | 8 (≈ 5.25 µM) | 8 (≈ 5.25 µM) | 8 (≈ 5.25 µM) | 8 (≈ 5.25 µM) | 8 (≈ 5.25 µM) | 8 (≈ 5.25 µM) | 8 (≈ 5.25 µM) | 8 (≈ 5.25 µM) | 8 (≈ 5.25 µM) | 8 (≈ 5.25 µM) | 8 (≈ 5.25 µM) | 8 (≈ 5.25 µM) | 8 (≈ 5.25 µM) | MIC (Range) [2]: 16 to 32 µg/mL; MIC90 ([5]; clinical isolates, 16 h): 20 µM; MIC (Range) ([5]; clinical isolates, 16 h): 16 to 32 µg/mL; MIC ([5]; isolate Candida Auris 3): 16 µg/mL (≈ 10.5 µM); MIC ([5]; isolate Candida Auris 4): 32 µg/mL (≈ 21 µM); MIC ([5]; isolate Candida Auris 5): 32 µg/mL (≈ 21 µM); MIC ([5]; isolate Candida Auris 6): 16 µg/mL (≈ 10.5 µM); MIC ([5]; isolate Candida Auris 7): 16 µg/mL (≈ 10.5 µM); MIC ([5]; isolate Candida Auris 8): 16 µg/mL (≈ 10.5 µM); MIC ([5]; isolate Candida Auris 9): 32 µg/mL (≈ 21 µM); MIC ([5]; isolate Candida Auris 10): 32 µg/mL (≈ 21 µM) |
| CCCCCCCCCCCCCC(=O)N[C@@H](Cc1c[nH]c2ccccc12)C(=O)N[C@@H](Cc1ccccc1)C(=O)NCC(=O)N[C@@H](CCCCN)C(=O)N[C@@H](CC(C)C)C(=O)N[C@@H](Cc1ccc(O)cc1)C(=O)N[C@@H](CCCNC(=N)N)C(=O)NCC(=O)N[C@H](C(=O)N[C@H](C(=O)N[C@@H](CCCCN)C(=O)O)[C@@H](C)O)[C@@H](C)CC [Myr-A] (Myristoyl-WFGKLYRGITK-OH; C-terminus assumed) | 4.7 ± 0.8 | 16 (≈ 10.1 µM) | 16 (≈ 10.1 µM) | 16 (≈ 10.1 µM) | 16 (≈ 10.1 µM) | 16 (≈ 10.1 µM) | 16 (≈ 10.1 µM) | 16 (≈ 10.1 µM) | 16 (≈ 10.1 µM) | 16 (≈ 10.1 µM) | 16 (≈ 10.1 µM) | 16 (≈ 10.1 µM) | 16 (≈ 10.1 µM) | 16 (≈ 10.1 µM) | 16 (≈ 10.1 µM) | 16 (≈ 10.1 µM) | 16 (≈ 10.1 µM) | 16 (≈ 10.1 µM) | > 256 | > 256 | MIC [2]: 16 µg/mL (≈ 10.1 µM); MIC90 ([5]; clinical isolates, 16 h): >256 µg/mL; MIC ([5]; isolate Candida Auris 3): > 256 µg/mL; MIC ([5]; isolate Candida Auris 4): > 256 µg/mL; MIC ([5]; isolate Candida Auris 5): > 256 µg/mL; MIC ([5]; isolate Candida Auris 6): > 256 µg/mL; MIC ([5]; isolate Candida Auris 7): > 256 µg/mL; MIC ([5]; isolate Candida Auris 8): > 256 µg/mL; MIC ([5]; isolate Candida Auris 9): > 256 µg/mL; MIC ([5]; isolate Candida Auris 10): > 256 µg/mL |
| CCCCCCCCCCCCCC(=O)N[C@@H](Cc1c[nH]c2ccccc12)C(=O)N[C@H](C(=O)N[C@H](C(=O)N[C@@H](CCCCN)C(=O)N[C@@H](CCCCN)C(=O)N[C@H](C(=O)N[C@@H](CCCCN)C(=O)NCC(=O)N[C@@H](CC(C)C)C(=O)N[C@@H](CC(C)C)C(=O)N[C@@H](CCCCN)C(=O)O)C(C)C)C(C)C)C(C)C [Myr-C] (Myristoyl-WVVKKVKGLLK-OH; C-terminus assumed) | 5.1 ± 0.4 | 32 (≈ 21.2 µM) | 32 (≈ 21.2 µM) | 32 (≈ 21.2 µM) | 32 (≈ 21.2 µM) | 32 (≈ 21.2 µM) | 32 (≈ 21.2 µM) | 16 (≈ 10.6 µM) | 16 (≈ 10.6 µM) | 16 (≈ 10.6 µM) | 16 (≈ 10.6 µM) | 16 (≈ 10.6 µM) | 16 (≈ 10.6 µM) | 16 (≈ 10.6 µM) | 16 (≈ 10.6 µM) | 16 (≈ 10.6 µM) | 16 (≈ 10.6 µM) | 16 (≈ 10.6 µM) | 16 (≈ 10.6 µM) | 16 (≈ 10.6 µM) | MIC [2]: 32 µg/mL (≈ 21.2 µM); MIC ([5]; isolate Candida Auris 3): 32 µg/mL (≈ 21.2 µM); MIC ([5]; isolate Candida Auris 4): 32 µg/mL (≈ 21.2 µM); MIC ([5]; isolate Candida Auris 5): 64 µg/mL (≈ 42.4 µM); MIC ([5]; isolate Candida Auris 6): 32 µg/mL (≈ 21.2 µM); MIC ([5]; isolate Candida Auris 7): 32 µg/mL (≈ 21.2 µM); MIC ([5]; isolate Candida Auris 8): 32 µg/mL (≈ 21.2 µM); MIC ([5]; isolate Candida Auris 9): 16 µg/mL (≈ 10.6 µM); MIC ([5]; isolate Candida Auris 10): 32 µg/mL (≈ 21.2 µM) |
